Test results reported in patent US11149031B2, “Substituted N-(3-fluoropropyl)-pyrrolidine compounds, processes for their preparation and therapeutic uses thereof” (SANOFI, priority 2016, dated 2021).

Tests used:
[1] = biological target: His6-ERα298-554 WT (ERα ligand-binding domain) (Homo sapiens (Human), UniProt P03372); experiment: Test A: biochemical antagonist activity, LanthaScreen TR-FRET ERα coactivator assay, WT; settings: protocol with 3 nM estradiol; read-out: Antagonism WT IC50
Protocol: (§1) Test A: Biochemical Antagonist Activity on Wild Type (WT) and Mutants
(§2) Estrogen Receptors Test A involves measuring the in vitro antagonist activity of the compounds of the invention on estrogen receptors.
(§3) The measurements of the antagonist activities were made using an estrogen receptor coactivator assay as described hereunder.
(§4) Antagonistic potency of compounds was evaluated using LanthaScreen® TR-FRET ERα Coactivator Assay (ThermoFisher) with modifications. […] The assay works in a homogeneous mix-and-read format. In a typical experiment, a 4 μL mixture of 0.5 nM His6-ERα298-554, 0.5 nM Tb-labeled His6 antibody, 250 nM PGC1a peptide, and 3 nM estradiol (or 10 nM estradiol) in 100 mM potassium phosphate, pH 7.4, 0.01% Tween-20, 0.02% NaN3, 5 mM DTT, was added to 40 nL test compound in DMSO and incubated overnight at room temperature. The TR-FRET 520:495 nm emission ratio was calculated and used to determine the IC50 value from a dose response curve fit to the 4-parameter logistic equation.

[2] = biological target: ERα in MCF7 cells (Homo sapiens (Human), UniProt P03372); experiment: Test C: estrogen receptor degradation activity, ERα in cell western assay in MCF7 cells; assay type: cell-based; settings: for DC50: 4 hours post compound addition, ERα in cell western, read-out: Degradation IC50; for % Degradation at 3 μM: 4 hours, relative to fulvestrant
Protocol: Test C: Estrogen Receptor Degradation Activity
Test C involves measuring the in vitro degradation activity of the compounds of the invention.
The measurements of the degradation activities were made using abreast cancer cell ERα in cell western assay as described hereunder.
MCF7 cells (ATCC) were seeded in 384 wells microplate (collagen coated) at concentration of >9990 cells/30 μL per well in red phenol free MEM alpha medium (invitrogen) containing 5% charcoal dextran striped FBS. The following day, 9 points serial 1:5 dilution of each compound were added to the cells in 2.5 μL at final concentrations ranging from 3-0.000018 μM or 0.1 μM for fulvestrant (using as positive control). At 4 hours post compounds addition the cells were fixed by adding 25 μL of formalin (final concentration 5% formalin containing 0.1% triton) for 10 minutes at room temperature and then washed twice with PBS. Then, 50 μL of LI-COR blocking buffer containing 0.1% Triton was added to plate for 30 minutes at room temperature. LI-COR blocking buffer was removed and cells were incubated overnight at cold room with 50 μL anti-ER rabbit monoclonal antibody (Thermo scientific MA1-39540) diluted at 1:>999 in LI-COR blocking buffer containing 0.1% tween-20. Wells which were treated with blocking but no antibody were used as background control. Wells were washed twice with PBS (0.1% tween-20) and incubated at 37° C. for 60 minutes in LI-COR (0.1% tween-20) containing goat anti-rabbit antibody Alexa 488 (1:>999) and Syto-64 a DNA dye (2 μM final concentration). Cells were then washed 3 times in PBS and scanned in ACUMEN explorer (TTP-Labtech). Integrated intensities in the green fluorescence and red fluorescence were measured to determine the levels of ERα and DNA respectively.

[3] = biological target: His6-ERα298-554 Y537S mutant (ERα ligand-binding domain) (Homo sapiens (Human), UniProt P03372, Y537S); experiment: Test A: biochemical antagonist activity, LanthaScreen TR-FRET ERα coactivator assay, Y537S mutant; settings: protocol with 3 nM estradiol; read-out: Antagonism Y537S IC50
Protocol: as §1, §2, §3, §4

[4] = biological target: His6-ERα298-554 D538G mutant (ERα ligand-binding domain) (Homo sapiens (Human), UniProt P03372, D538G); experiment: Test A: biochemical antagonist activity, LanthaScreen TR-FRET ERα coactivator assay, D538G mutant; settings: protocol with 3 nM estradiol; read-out: Antagonism D538G IC50
Protocol: as §1, §2, §3, §4

Chain of His6-ERα298-554 D538G mutant (ERα ligand-binding domain) (P03372 298-554 D538G): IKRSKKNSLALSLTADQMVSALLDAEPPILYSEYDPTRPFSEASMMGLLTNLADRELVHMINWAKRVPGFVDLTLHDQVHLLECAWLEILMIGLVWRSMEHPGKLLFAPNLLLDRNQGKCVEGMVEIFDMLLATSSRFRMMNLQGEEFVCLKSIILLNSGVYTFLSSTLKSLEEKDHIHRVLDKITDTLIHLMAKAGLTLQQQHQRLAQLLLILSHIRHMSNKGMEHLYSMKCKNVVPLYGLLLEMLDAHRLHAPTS
Chain of His6-ERα298-554 Y537S mutant (ERα ligand-binding domain) (P03372 298-554 Y537S): as the sequence (P03372 298-554 D538G) above, with Y240S, G241D counted along it
Chain of His6-ERα298-554 WT (ERα ligand-binding domain) (P03372 298-554): as the sequence (P03372 298-554 D538G) above, with G241D counted along it
Chain of ERα in MCF7 cells (P03372 whole entry): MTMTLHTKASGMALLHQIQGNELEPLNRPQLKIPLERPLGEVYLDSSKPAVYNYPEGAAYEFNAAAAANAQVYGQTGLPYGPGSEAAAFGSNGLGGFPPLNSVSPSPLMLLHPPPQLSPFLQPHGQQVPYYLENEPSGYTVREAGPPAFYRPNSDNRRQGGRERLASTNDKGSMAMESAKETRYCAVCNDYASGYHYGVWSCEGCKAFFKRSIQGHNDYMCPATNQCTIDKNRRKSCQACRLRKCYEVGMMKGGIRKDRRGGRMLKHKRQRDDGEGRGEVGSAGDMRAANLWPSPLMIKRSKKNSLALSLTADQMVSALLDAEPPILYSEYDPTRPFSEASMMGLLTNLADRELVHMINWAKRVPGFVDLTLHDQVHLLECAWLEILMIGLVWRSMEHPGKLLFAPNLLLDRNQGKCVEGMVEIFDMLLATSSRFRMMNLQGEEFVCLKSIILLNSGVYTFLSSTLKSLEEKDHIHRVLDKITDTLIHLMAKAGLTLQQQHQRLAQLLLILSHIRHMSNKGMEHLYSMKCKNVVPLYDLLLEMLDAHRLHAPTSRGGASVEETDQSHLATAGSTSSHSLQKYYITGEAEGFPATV

SMILES	IC50 [1]	DC50 [2]	% Degradation at 3 μM [2]	IC50 [3]	IC50 [4]
Oc1ccc2c(c1)C(c1ccc(O[C@H]3CCN(CCCF)C3)cc1)=C(c1ccc(F)cc1Cl)CC2 [Example 4, 7-(2-chloro-4-fluoro-phenyl)-8-[4-[(3S)-1-(3-fluoropropyl)pyrrolidin-3-yl]oxyphenyl]-5,6-dihydronaphthalen-2-ol]	284 nM	12 nM	87%		
Cc1c(O)ccc2c1OCCC(c1cccc3[nH]ccc13)=C2c1ccc(O[C@H]2CCN(CCCF)C2)cc1 [Example 130, 5-[4-[(3S)-1-(3-fluoropropyl)pyrrolidin-3-yl]oxyphenyl]-4-(1H-indol-4-yl)-9-methyl-2,3-dihydro-1-benzoxepin-8-ol]	70 nM	18 nM	73%	777 nM	1190 nM
Cc1cc(C2=C(c3ccc(O[C@H]4CCN(CCCF)C4)cc3)c3ccc(O)cc3OCC2)ccc1Cl [Example 99, 4-(4-chloro-3-methyl-phenyl)-5-[4-[(3S)-1-(3-fluoropropyl)pyrrolidin-3-yl]oxyphenyl]-2,3-dihydro-1-benzoxepin-8-ol]	5 nM	0.7 nM	89%	25 nM	36 nM
Oc1ccc2c(c1)OCCC(c1ccc(Cl)c(F)c1)=C2c1ccc(O[C@H]2CCN(CCCF)C2)cc1 [Example 97, 4-(4-chloro-3-fluoro-phenyl)-5-[4-[(3S)-1-(3-fluoropropyl)pyrrolidin-3-yl]oxyphenyl]-2,3-dihydro-1-benzoxepin-8-ol]	50 nM	0.2 nM	94%	18 nM	358 nM
Cc1cc2c(cc1O)OCCC(c1ccc3c(c1)CCN3)=C2c1ccc(O[C@H]2CCN(CCCF)C2)cc1 [Example 137, 5-[4-[(3S)-1-(3-fluoropropyl)pyrrolidin-3-yl]oxyphenyl]-4-indolin-5-yl-7-methyl-2,3-dihydro-1-benzoxepin-8-ol]	250 nM	5 nM	75%	1220 nM	1710 nM
Oc1ccc2c(c1)SCC(c1ccc3[nH]ccc3c1)=C2c1ccc(O[C@H]2CCN(CCCF)C2)cc1 [Example 19, 4-[4-[(3S)-1-(3-fluoropropyl)pyrrolidin-3-yl]oxyphenyl]-3-(1H-indol-5-yl)-2H-thiochromen-7-ol]	7 nM	3 nM	78%	11 nM	23 nM
Cc1cccc(C2=C(c3ccc(O[C@H]4CCN(CCCF)C4)cc3)c3ccc(O)cc3OCC2)c1C [Example 122, 4-(2,3-dimethylphenyl)-5-[4-[(3S)-1-(3-fluoropropyl)pyrrolidin-3-yl]oxyphenyl]-2,3-dihydro-1-benzoxepin-8-ol]	3 nM	0.3 nM	91%	24 nM	41 nM
Cc1cc(C2=C(c3ccc(O[C@H]4CCN(CCCF)C4)cc3)c3cc(O)ccc3SCC2)ccc1Cl [Example 179, 4-(4-chloro-3-methyl-phenyl)-5-[4-[(3S)-1-(3-fluoropropyl)pyrrolidin-3-yl]oxyphenyl]-2,3-dihydro-1-benzothiepin-7-ol]	12 nM	4 nM	80%	80 nM	114 nM
Oc1cccc(C2=C(c3ccc(O[C@H]4CCN(CCCF)C4)cc3)c3ccc(O)cc3SCC2)c1 [Example 158, 5-[4-[(3S)-1-(3-fluoropropyl)pyrrolidin-3-yl]oxyphenyl]-4-(3-hydroxyphenyl)-2,3-dihydro-1-benzothiepin-8-ol]	1 nM	0.2 nM	88%	3 nM	4 nM
Oc1ccc2c(c1F)OCCC(c1cccc3c1CCN3)=C2c1ccc(O[C@H]2CCN(CCCF)C2)cc1 [Example 134, 9-fluoro-5-[4-[(3S)-1-(3-fluoropropyl)pyrrolidin-3-yl]oxyphenyl]-4-indolin-4-yl-2,3-dihydro-1-benzoxepin-8-ol]	19 nM	3 nM	85%	225 nM	328 nM
Oc1cccc(C2=C(c3ccc(O[C@H]4CCN(CCCF)C4)cc3)c3ccc(O)cc3OCC2)c1 [Example 91, 5-[4-[(3S)-1-(3-fluoropropyl)pyrrolidin-3-yl]oxyphenyl]-4-(3-hydroxyphenyl)-2,3-dihydro-1-benzoxepin-8-ol]	2 nM	0.4 nM	91%	6 nM	10 nM
Oc1ccc2c(c1)OCCC(c1ccc3c(c1)CCN3)=C2c1ccc(O[C@H]2CCN(CCCF)C2)cc1 [Example 104, 5-[4-[(3S)-1-(3-fluoropropyl)pyrrolidin-3-yl]oxyphenyl]-4-indolin-5-yl-2,3-dihydro-1-benzoxepin-8-ol]	12 nM	0.2 nM	88%	23 nM	54 nM
Oc1ccc2c(c1)SCCC(c1ccc(F)cc1Cl)=C2c1ccc(O[C@H]2CCN(CCCF)C2)cc1 [Example 159, 4-(2-chloro-4-fluoro-phenyl)-5-[4-[(3S)-1-(3-fluoropropyl)pyrrolidin-3-yl]oxyphenyl]-2,3-dihydro-1-benzothiepin-8-ol]	3 nM	0.5 nM	89%	10 nM	17 nM
O=S1(=O)CCC(c2ccc(Cl)cc2Cl)=C(c2ccc(O[C@H]3CCN(CCCF)C3)cc2)c2ccc(O)cc21 [Example 231, 4-(2,4-dichlorophenyl)-5-[4-[(3S)-1-(3-fluoropropyl)pyrrolidin-3-yl]oxyphenyl]-1,1-dioxo-2,3-dihydro-1λ^6-benzothiepin-8-ol]		2 nM	96%		
Cc1cc(F)ccc1C1=C(c2ccc(O[C@H]3CCN(CCCF)C3)cc2)c2ccc(O)cc2SCC1 [Example 165, 4-(4-fluoro-2-methyl-phenyl)-5-[4-[(3S)-1-(3-fluoropropyl)pyrrolidin-3-yl]oxyphenyl]-2,3-dihydro-1-benzothiepin-8-ol]	3 nM	0.2 nM	90%	8 nM	11 nM
Oc1ccc2c(c1)C(c1ccc(O[C@H]3CCN(CCCF)C3)cc1)=C(C1=CCOCC1)CC2 [Example 3, 7-(3,6-dihydro-2H-pyran-4-yl)-8-[4-[(3S)-1-(3-fluoropropyl)pyrrolidin-3-yl]oxyphenyl]-5,6-dihydronaphthalen-2-ol]	1510 nM	85 nM	80%		
Oc1ccc2c(c1)C(c1ccc(O[C@H]3CCN(CCCF)C3)cc1)=C(c1ccc(Cl)cc1Cl)CCS2 [Example 182, 4-(2,4-dichlorophenyl)-5-[4-[(3S)-1-(3-fluoropropyl)pyrrolidin-3-yl]oxyphenyl]-2,3-dihydro-1-benzothiepin-7-ol]		5 nM	79%		
Oc1ccc2c(c1)C(c1ccc(O[C@H]3CCN(CCCF)C3)cc1)=C(c1ccncc1F)CC2 [Example 1, 8-[4-[(3S)-1-(3-fluoropropyl)pyrrolidin-3-yl]oxyphenyl]-7-(3-fluoro-4-pyridyl)-5,6-dihydronaphthalen-2-ol]	460 nM	34 nM	84%		
